Measured values taken from ChEMBL document CHEMBL1201862, “PubChem BioAssay data set” (2004).
The source made the active and inactive calls.

Key:
Paired box protein Pax-8 = Paired box protein Pax-8 (Homo sapiens, UniProt Q06710); assay: PAX8 transcriptional activity inhibition in RMG-I – RMG-I cells, luciferase, cherry-pick, dose response (AID 687027); type: functional, cell-based;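 further: luciferase reporter driven by Pax8 target thyroperoxidase promoter measured by SteadyGlo luminescence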
[1] = P. falciparum Dd2 growth inhibitors, dose response, SYBR Green, cherry-picked samples (AID 1159567); type: functional, cell-based
[2] = OVCAR-3 cell viability loss – plate reader, dry powder samples, PAX8 inhibitor project, dose response (AID 743044); type: functional, cell-based
[3] = IGROV1 cell killing – plate reader, dry powder samples, PAX8 inhibitor project, dose response (AID 743043); type: functional, cell-based; conditions: IGROV-1
[4] = general cell-killing toxicity readout – plate reader, dry powder samples, cytotoxicity control for PAX8 inhibitor project, dose response (AID 743021); type: functional, cell-based
[5] = toxicity to human hepatoma HepG2 cells – cell-based, cherry-picked samples, cytotoxicity control, dose response (AID 1159577); type: functional
[6] = toxicity toward HepG2 liver cells – cell-based, plate reader, cherry-pick, antagonist series, cytotoxicity control, dose response (AID 743416); type: functional
[7] = luciferase reporter signal reduction – luminescence, H4-C neuroglioblastoma cells, dose response (AID 2458); type: functional, cell-based;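 further: H4 neuroglioblastoma cells stably carrying a luciferase reporter gene fusion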
[8] = luciferase reporter signal suppression in cells – H4 neuroglioma cells, luminescence, dose response (AID 1990); type: functional, cell-based
[9] = Luminescence Cell-Based Dose Confirmation HTS to Identify Inhibitors of Platelet Dense Granule Release. [Related pubchem assays: 1663 (Primary HTS), 1678 (Summary of Project)]; type: functional
[10] = biological target: Luciferin 4-monooxygenase (Photinus pyralis, UniProt P08659); assay: inhibition of purified Photinus pyralis luciferase – biochemical, luminescence, dose response (AID 1891)
[11] = Luminescence Cell-Based Dose Response HTS to Identify Inhibitors of 5'UTR Stem-Loop Driven Prion Protein mRNA Translation in H4 Neuroglioblastoma Cells. [Related pubchem assays: 1827 (Project Summary), 1813 (Primary HTS)]; type: functional
[12] = A549 cell cytotoxicity, dose response, cytotoxicity control, plate reader, cherry-pick, antagonist series (AID 743412); type: functional, cell-based
[13] = viability loss in HEK293 cells – cell-based, plate reader, cherry-picked samples, cytotoxicity control, dose response (AID 743446); type: functional
[14] = alpha-synuclein stem-loop luciferase translation blockers – H4 neuroglioma cells, luminescence, confirmation (AID 1988); type: functional, cell-based
[15] = biological target: T1, Heat shock factor protein 1 (Mus musculus, UniProt P38532); assay: decrease of HSF1-responsive luciferase luminescence – cell-based, NIH3T3, dose retest, confirmation (AID 2382); type: functional;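 further: NIH3T3 fibroblasts with HSF1-driven luciferase reporter stressed by proteasome inhibitor MG132; luminescence from HSF1-driven luciferase expression after 8 hours of MG132 stress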
T1 sequence (P38532 whole entry): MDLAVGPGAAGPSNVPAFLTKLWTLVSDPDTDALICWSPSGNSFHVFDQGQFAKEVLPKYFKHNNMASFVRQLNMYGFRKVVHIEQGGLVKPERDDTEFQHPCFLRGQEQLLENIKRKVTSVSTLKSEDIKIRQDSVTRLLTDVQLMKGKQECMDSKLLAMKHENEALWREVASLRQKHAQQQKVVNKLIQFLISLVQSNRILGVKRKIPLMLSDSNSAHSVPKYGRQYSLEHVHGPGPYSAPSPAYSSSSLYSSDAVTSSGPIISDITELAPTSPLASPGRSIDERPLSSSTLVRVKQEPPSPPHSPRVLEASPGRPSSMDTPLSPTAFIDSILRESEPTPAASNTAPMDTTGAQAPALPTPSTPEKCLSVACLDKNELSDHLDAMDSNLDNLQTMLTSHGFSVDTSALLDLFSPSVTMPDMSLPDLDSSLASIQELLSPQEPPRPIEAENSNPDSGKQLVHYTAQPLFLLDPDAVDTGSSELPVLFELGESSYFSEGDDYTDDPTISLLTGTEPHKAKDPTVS

[16] = blockade of melanocortin 4 receptor signaling – cell-based, plate reader, cherry pick, counter-screen for LGR2 antagonist project, dose response (AID 743444); type: functional;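 further: transfected HEK 293 cells stimulated with alpha-MSH peptide; potency of inhibitors of the alpha-MSH evoked signal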
[17] = alpha-synuclein stem-loop translation blockers – luminescence, H4 neuroglioblastoma cells, dose confirmation, confirmation (AID 2454); type: functional, cell-based;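 further: H4 neuroglioblastoma cells carrying an alpha-synuclein 5'UTR luciferase reporter; potency for inhibition of the luciferase signal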
[18] = Luminescence-based counterscreen assay for KLF5 inhibitors: dose response cell-based high throughput screening assay to identify cytotoxic compounds using the IEC-6 intestinal epithelial cell line. [Related pubchem assays: 1700 (Primary screen.), 1834 (Confirmation screen.), 1858 (Summary AID.), 1905 (Counterscreen.)]; type: functional
[19] = blockers of bursicon-stimulated LGR2 cAMP reporter – cell-based, HEK293, CRE-luciferase reporter, cherry pick, set 2, dose response (AID 743343); type: functional;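 further: transfected cells were stimulated with diluted bursicon conditioned medium after compound addition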
cells = type: functional, cell-based
[20] = biological target: T2, Small ubiquitin-related modifier 1 (Homo sapiens, UniProt P63165); assay: SUMO1 protein interaction blockers, potency – biochemical, fluorescence polarization, uHTS hits, dose response (AID 624382); type: functional; conditions: read-out: IC50_Mean
[21] = biological target: T2, Small ubiquitin-related modifier 1; assay: SUMO1 protein-protein binding blockers, potency – biochemical, FRET, dose response (AID 624383); type: functional; conditions: read-out: IC50_Mean
[22] = biological target: T3, Small ubiquitin-related modifier 2 (Homo sapiens, UniProt P61956); assay: disruption of SUMO2 interaction with SIM peptide – biochemical, fluorescence polarization, uHTS hits, selectivity assay for SUMO1 interaction inhibitor project, dose response (AID 624385); type: functional; conditions: read-out: IC50_Mean
[23] = biological target: T3, Small ubiquitin-related modifier 2; assay: SUMO2 binding disruption by SUMO1 hits – biochemical, FRET, human SUMO2, uHTS hits, selectivity assay for SUMO1 interaction inhibitor project, dose response (AID 624384); type: functional; conditions: read-out: IC50_Mean
[24] = biological target: Nuclear receptor subfamily 5 group A member 2 (Homo sapiens, UniProt O00482); type: functional, cell-based;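 further: HEK293T cells transfected with LRH-1 and a StAR promoter luciferase reporter; potency for inhibitors that lower LRH-1 driven reporter light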
Steroidogenic factor 1 = Steroidogenic factor 1 (Homo sapiens, UniProt Q13285); assay: Counterscreen for inverse agonists of the liver receptor homolog-1 (LRH-1; NR5A2): Luminescence-based cell-based high throughput dose response assay to identify inverse agonists of the Steroidogenic Factor 1 Nuclear Receptor (SF1; NR5A1).; type: functional
[25] = nonselective StAR promoter luciferase inhibitors – cell-based, luminescence, luciferase reporter, counter-screen for LRH-1 inverse agonist project, dose response (AID 651969); type: functional
HEK293 [26] = assay: inhibition of NOD1-driven NF-kB reporter – cell-based, luminescence, uHTS, primary screen (AID 1578); type: functional; conditions: Homo sapiens
HEK293 [27] = assay: cells; type: functional, cell-based; conditions: Homo sapiens
[28] = biological target: Nucleotide-binding oligomerization domain-containing protein 2 (Homo sapiens, UniProt Q9HC29); assay: inhibition of NOD2-driven NF-kB reporter – cell-based, luminescence, uHTS, HEK293 (AID 1566); type: functional
HEK293 [29] = assay: cells; type: functional, cell-based; conditions: Homo sapiens; remark: listed apart in the source
HEK293 [30] = assay: NOD2 signaling inhibitors in MDP-stimulated cells, cell-based, uHTS, luminescence (AID 2001); type: functional; conditions: Homo sapiens
Protein Wnt-3a = Protein Wnt-3a (Mus musculus, UniProt P27467); assay: antagonism of Wnt3a pathway luciferase reporter – Wnt-LIGHT cells, luminescence, selectivity assay for Gli-SUFU antagonist project, dose response (AID 651570); type: functional; conditions: read-out: IC50_Mean;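 further: Wnt-LIGHT reporter cells stimulated with conditioned medium from Wnt3a-producing cells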
HEK293 [31] = assay: cells; type: functional, cell-based; conditions: Homo sapiens; remark: listed apart in the source
[32] = OVCAR8 cell viability loss – plate reader, dry powder samples, PAX8 project, dose response (AID 743197); type: functional, cell-based; conditions: OVCAR-8
[33] = biological target: Adenosylmethionine-8-amino-7-oxononanoate aminotransferase (Mycobacterium tuberculosis, UniProt P9WQ81); assay: Mycobacterium tuberculosis BioA enzyme inhibitor Measured in Biochemical System Using Plate Reader - 2163-02_Inhibitor_Dose_CherryPick_Activity.; type: functional, Mycobacterium tuberculosis UT205
Sequence of Adenosylmethionine-8-amino-7-oxononanoate aminotransferase (P9WQ81 whole entry): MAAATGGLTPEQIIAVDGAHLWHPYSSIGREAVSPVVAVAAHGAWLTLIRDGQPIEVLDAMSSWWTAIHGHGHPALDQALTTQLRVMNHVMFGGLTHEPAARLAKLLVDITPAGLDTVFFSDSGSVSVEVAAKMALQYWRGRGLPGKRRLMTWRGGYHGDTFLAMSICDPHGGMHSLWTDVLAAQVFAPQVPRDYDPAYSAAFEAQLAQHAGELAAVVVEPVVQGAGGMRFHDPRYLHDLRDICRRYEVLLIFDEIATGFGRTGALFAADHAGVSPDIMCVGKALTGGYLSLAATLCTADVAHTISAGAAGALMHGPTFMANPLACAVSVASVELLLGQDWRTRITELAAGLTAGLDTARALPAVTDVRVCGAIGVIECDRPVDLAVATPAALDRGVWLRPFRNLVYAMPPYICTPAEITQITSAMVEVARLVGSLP

T2 sequence (P63165 whole entry): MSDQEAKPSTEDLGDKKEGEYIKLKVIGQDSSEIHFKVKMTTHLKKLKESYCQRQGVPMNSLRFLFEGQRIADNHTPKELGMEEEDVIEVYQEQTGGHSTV
T3 sequence (P61956 whole entry): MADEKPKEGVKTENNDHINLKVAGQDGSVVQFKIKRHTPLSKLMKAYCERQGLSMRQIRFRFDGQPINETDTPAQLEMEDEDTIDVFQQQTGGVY
Sequence of Paired box protein Pax-8 (Q06710 whole entry): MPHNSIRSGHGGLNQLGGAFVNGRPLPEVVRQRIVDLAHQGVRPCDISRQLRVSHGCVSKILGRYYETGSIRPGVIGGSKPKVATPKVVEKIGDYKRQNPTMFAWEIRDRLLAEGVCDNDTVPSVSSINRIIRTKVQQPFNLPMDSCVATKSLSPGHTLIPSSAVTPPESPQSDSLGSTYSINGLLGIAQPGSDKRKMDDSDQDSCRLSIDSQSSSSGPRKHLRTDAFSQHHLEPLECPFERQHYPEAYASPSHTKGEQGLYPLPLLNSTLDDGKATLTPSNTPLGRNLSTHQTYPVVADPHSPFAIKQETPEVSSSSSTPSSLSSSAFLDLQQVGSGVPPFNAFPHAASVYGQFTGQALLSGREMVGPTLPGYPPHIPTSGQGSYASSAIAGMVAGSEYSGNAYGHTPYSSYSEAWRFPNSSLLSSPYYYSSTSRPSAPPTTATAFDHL
Sequence of Protein Wnt-3a (P27467 whole entry): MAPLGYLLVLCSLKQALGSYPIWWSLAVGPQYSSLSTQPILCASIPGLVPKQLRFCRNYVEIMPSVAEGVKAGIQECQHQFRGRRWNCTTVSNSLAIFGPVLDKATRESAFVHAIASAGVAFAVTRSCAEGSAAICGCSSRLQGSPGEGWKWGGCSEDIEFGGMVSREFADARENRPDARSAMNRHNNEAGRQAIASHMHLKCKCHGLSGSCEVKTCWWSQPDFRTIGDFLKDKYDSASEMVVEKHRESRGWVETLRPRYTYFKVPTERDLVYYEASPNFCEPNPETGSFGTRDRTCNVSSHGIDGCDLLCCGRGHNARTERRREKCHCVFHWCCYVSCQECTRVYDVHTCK
Sequence of Luciferin 4-monooxygenase (P08659 whole entry): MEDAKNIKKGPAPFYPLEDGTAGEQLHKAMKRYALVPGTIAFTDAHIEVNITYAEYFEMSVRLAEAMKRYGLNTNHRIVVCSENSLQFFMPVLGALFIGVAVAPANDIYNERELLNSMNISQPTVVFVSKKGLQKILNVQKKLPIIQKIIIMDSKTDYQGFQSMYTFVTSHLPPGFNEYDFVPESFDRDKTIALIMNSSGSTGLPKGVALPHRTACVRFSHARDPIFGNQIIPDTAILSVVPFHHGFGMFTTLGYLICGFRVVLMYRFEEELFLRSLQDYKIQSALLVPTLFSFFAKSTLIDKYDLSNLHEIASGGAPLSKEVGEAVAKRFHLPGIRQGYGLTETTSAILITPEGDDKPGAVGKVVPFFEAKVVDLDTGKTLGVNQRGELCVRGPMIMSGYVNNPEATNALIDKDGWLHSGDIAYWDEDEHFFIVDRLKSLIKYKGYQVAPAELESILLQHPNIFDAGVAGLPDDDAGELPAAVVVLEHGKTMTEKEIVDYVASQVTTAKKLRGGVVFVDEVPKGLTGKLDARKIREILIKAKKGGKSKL
Sequence of Nuclear receptor subfamily 5 group A member 2 (O00482 whole entry): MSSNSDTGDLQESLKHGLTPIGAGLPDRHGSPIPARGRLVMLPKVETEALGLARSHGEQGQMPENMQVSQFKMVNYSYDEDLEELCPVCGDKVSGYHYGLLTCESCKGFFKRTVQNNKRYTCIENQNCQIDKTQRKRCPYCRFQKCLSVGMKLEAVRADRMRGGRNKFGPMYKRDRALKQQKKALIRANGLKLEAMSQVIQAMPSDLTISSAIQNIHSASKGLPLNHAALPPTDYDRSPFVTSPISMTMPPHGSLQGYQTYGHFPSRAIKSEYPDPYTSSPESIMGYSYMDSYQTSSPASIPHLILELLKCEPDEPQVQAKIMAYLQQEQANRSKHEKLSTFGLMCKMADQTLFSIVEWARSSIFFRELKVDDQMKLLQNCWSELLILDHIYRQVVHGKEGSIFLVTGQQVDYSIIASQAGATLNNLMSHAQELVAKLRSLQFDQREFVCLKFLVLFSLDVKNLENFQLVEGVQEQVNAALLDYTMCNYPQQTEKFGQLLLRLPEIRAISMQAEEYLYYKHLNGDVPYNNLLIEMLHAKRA
Sequence of Steroidogenic factor 1 (Q13285 whole entry): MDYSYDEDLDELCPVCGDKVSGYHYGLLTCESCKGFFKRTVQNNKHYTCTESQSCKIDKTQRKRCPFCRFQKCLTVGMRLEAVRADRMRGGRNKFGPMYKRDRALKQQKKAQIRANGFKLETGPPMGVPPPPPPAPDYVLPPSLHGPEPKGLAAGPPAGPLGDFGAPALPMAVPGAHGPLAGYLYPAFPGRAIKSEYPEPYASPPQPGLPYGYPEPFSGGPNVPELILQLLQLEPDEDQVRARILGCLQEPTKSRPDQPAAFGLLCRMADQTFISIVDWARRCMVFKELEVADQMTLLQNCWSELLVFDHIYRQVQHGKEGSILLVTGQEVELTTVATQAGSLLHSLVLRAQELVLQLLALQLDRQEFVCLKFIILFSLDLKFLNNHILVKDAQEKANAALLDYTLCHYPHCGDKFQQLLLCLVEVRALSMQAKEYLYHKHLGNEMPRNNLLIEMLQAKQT
Sequence of Nucleotide-binding oligomerization domain-containing protein 2 (Q9HC29 whole entry, the tested form may be a part): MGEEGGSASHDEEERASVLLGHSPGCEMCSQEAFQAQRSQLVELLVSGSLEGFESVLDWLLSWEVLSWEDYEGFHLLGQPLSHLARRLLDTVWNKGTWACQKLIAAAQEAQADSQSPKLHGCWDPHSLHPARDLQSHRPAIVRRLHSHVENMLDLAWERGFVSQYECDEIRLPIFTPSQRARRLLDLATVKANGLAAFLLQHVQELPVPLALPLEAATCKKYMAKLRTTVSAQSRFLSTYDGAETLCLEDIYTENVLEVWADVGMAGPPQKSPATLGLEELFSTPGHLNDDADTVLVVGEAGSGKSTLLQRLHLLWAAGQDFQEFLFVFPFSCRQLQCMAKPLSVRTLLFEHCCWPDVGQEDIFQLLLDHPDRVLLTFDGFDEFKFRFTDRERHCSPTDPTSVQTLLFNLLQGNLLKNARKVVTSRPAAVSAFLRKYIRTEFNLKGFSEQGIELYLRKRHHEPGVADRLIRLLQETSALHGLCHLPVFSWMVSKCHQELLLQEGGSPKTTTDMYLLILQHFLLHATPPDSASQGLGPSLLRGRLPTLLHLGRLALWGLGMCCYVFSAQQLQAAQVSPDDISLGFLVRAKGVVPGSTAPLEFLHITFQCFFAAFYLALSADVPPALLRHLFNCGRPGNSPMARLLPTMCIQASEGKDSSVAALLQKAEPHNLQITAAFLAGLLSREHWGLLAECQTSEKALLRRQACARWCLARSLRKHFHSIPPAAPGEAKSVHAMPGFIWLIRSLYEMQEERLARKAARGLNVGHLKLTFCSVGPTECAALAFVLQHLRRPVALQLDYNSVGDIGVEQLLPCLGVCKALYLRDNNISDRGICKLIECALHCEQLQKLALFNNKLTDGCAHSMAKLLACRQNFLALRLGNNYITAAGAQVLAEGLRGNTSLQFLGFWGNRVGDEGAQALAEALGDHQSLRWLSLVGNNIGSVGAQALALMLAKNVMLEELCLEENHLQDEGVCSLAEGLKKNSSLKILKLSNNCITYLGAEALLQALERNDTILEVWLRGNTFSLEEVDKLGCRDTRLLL

For COc1ccccc1NC(=O)N1CCCCN2[C@H](CO)[C@H](c3ccc(-c4cccc(C)c4)cc3)[C@H]2C1, the AC50 (Paired box protein Pax-8) was 14.6 µM (active), the AC50 [1] was 1.44 µM (active) and the AC50 [2] was 22.8 µM (active). For the same compound, the AC50 [3] was 64.1 µM (active), the AC50 [4] was 2.56 µM (active) and the AC50 [5] was 9.66 µM (active).
In the case of CCCS(=O)(=O)c1cnc(C2COc3ccccc3O2)nc1N (stereo unspecified), the AC50 [6] is reported as 40.1 µM (active), the EC50 [7] is reported as 0.862 µM (active) and the EC50 [8] is reported as 0.197 µM (active). The EC50 [9] was 3.05 µM (active), the EC50 [10] was 14.4 µM (active) and the EC50 [11] was 0.132 µM (active). The AC50 [12] was 34.2 µM (active), the AC50 [13] was 26.6 µM (active) and the EC50 [14] was < 0.1 µM (active). The EC50 [15] was < 0.16 µM (active), the AC50 [16] was 1.2 µM (active) and the EC50 [17] was 1.06 µM (active). The IC50 [18] was > 39.8 µM (not active), the AC50 [19] was 1.45 µM (active) and the EC50 (cells) was > 12 µM (inconclusive).
In the case of COc1ccc(C=NNc2ccc(S(=O)(=O)Nc3ccccc3C(=O)O)cc2[N+](=O)[O-])c(OC)c1, the IC50 [20] is reported as 5.26 µM (active), the IC50 [21] is reported as 50.9 µM (inactive) and the IC50 [22] is reported as 3.82 µM (active). The IC50 [23] was 6.34 µM (active).
For COc1cc2c(cc1OC)CN(C(=O)CN1C(=O)NC3(CCC(C)CC3)C1=O)CC2 (stereo unspecified), the IC50 [24] was 13.4 µM (inactive), the IC50 (Steroidogenic factor 1) was 11.3 µM (inactive) and the IC50 [25] was 35.9 µM (inactive).
In the case of Cc1nc2cc(N3CCN(C)CC3)c(NC(=O)Cc3ccccc3)cc2c(=O)n1Cc1ccccc1, the EC50 (HEK293 [26]) is reported as > 20 µM (inactive), the IC50 (HEK293 [27]) is reported as > 20 µM (inactive) and the EC50 [28] is reported as 9.39 µM (active). The IC50 (HEK293 [29]) was 8.5 µM (active), the IC50 (HEK293 [30]) was > 20 µM (inactive) and the IC50 (Protein Wnt-3a) was 37.5 µM (inactive). The IC50 (HEK293 [31]) was > 20 µM (inactive).
With O=C(C1CCCC1)N1CC[C@@H]2[C@H](CO)Nc3ccc(C4=CCCCC4)cc3[C@@H]21 the AC50 (Paired box protein Pax-8) was 12.7 µM (active), the AC50 [32] was 33.1 µM (active) and the AC50 [1] was 5.7 µM (active). For the same compound, the AC50 [2] was 25.5 µM (active) and the AC50 [5] was > 39 µM (inactive).
With Cn1c(=O)c2c(nc(OCc3cccnc3)n2Cc2ccccc2)n(C)c1=O the AC50 [33] was 1 µM (active).
